US20160074291A1, “ANTI-AGING SKIN CARE COMPOSITIONS AND REGIMENS” (The Procter & Gamble Company, priority 2014, published 2016)

How the values were obtained:
[1] = tested on: "Repair and Rebuild" associated genes; assay: Eigengene analysis of "Repair and Rebuild" co-expression module; details: 301 genes, FIG. 9
[2] = tested on: "Clear and Detox" module genes; assay: Eigengene analysis of "Clear and Detox" co-expression module; details: FIG. 8
[3] = tested on: skin barrier formation; assay: Eigengene analysis of younger-appearance genes, skin barrier; assay type: cell-based; details: cultured human keratinocytes

| Substance | effect on "Repair and Rebuild" eigengene [1] | effect on "Clear and Detox" eigengene [2] | effects relating to successful aging in skin barrier formation [3] |
| --- | --- | --- | --- |
| palmitoyl-lysine-threonine-threonine-lysine-serine [Pal-KTTKS] | significantly up-regulate |  |  |
| palmitoyl-lysine-threonine [Pal-KT] |  | significantly up-regulates | Effects relating to successful aging were also identified |
